Laboratory results: US20230129595A1, “PARENTERAL NUTRITION SOLUTION COMPRISING A SELENIUM SOURCE” (BAXTER INTERNATIONAL INC., priority 2019, published 2023)

Experiments:
[1] = cited from earlier work
[2] = Selenium stability in sterilized multi trace element solutions, recovery of initial concentration (Example 4, FIGS. 1-3); details: for Selenium concentration during storage: FIGS. 1-3
From the text: FIGS. 1-3: The recovery of the initial concentration of the different trace elements in percent (%) is indicated on the Y-axis of the Figures. The analyzed timepoints are is indicated on the X-axis. The timepoint −0.5 corresponds to the results of TE dosage on unsterilized sample at T0. Timepoint 0 corresponds to the results of TE dosage right after sterilization. Timepoint 0.5 correspond to the results of TE dosage after an accelerated stability stress cycle (i.e. three repetition of alternatively 5° C./50° C., 48 h/48 h). Timepoints 1, 3 and 6 correspond to the results of TE dosage after 1 month, 3 months and 6 months storage at 40° C./25% RH.
For the three tested solutions containing different forms of selenium, the selenium is mixed with other TE (Zn, Cu, Mn, F, I, Mo, Cr, Fe), which were introduced as chloride salts. The solutions were acidified to pH 2.2 using malic acid and underwent terminal heat sterilization prior to storage.

[3] = Pediaven, trace elements in the glucose chamber; announced July 2014; cited from earlier work
[4] = Storage stability of selenium sources in a separate chamber (Example 3); details: separated chamber, alone or together with other trace elements; after 6 months storage at 40° C./25% RH
From the text: Selenate was introduced with other trace elements into a separate chamber from macronutrients.

[5] = mixed with other TE, pH 2.2 with malic acid, terminal heat sterilization, storage at 40° C./25% RH, selenate and selenomethionine compared with selenite
[6] = mixed with other TE, pH 2.2 with malic acid, terminal heat sterilization

Row | Compound | Stability of selenium after storage for three months [2, 5] | Stability in solution [4] | Selenium concentration during storage [2, 6] | other results
1 | [Na+].[Na+].[O]=[Mo](=[O])([O-])[O-] [Na2MoO4, 2H2O, sodium molybdate] | – | – | – | Chemical form; Solubility in water [1]: <840 mg/mL
2 | O=[Se](O)O [selenite, reference compound] | lack of stability | – | – | –
3 | O=[Se]=O [selenium dioxide] | – | – | – | Presence of selenium in the finished product [3]: absent in the finished product
4 | N[C@@H](C[SeH])C(=O)O [selenocysteine] | – | remained stable | – | –
5 | C[Se]CC[C@H](N)C(=O)O [selenomethionine] | – | – | remained stable | Stability of selenium after storage for three months ([2]; pH 2.2): better stability
6 | O=[Se](=O)(O)O [sodium selenate] | better stability | remained stable | remained stable | –
